From ChEMBL document CHEMBL5465560, “Selectivity Literature for EUbOPEN Chemogenomic Library” (2024)
Each block holds one compound with its values, some of them ahead of it.

Tests used:
[1] = target: Alpha-1D adrenergic receptor (Homo sapiens) (UniProt P25100); experiment: Selectivity interaction (GPCR panel (PDSP screen)) EUB0001079a ADRA1D; conditions: at 10 µM
[2] = target: Platelet-derived growth factor receptor beta (Homo sapiens, UniProt P09619); experiment: Selectivity interaction (Kinase panel (enzymatic assay)) EUB0000595a PDGFRB
Sequence of Platelet-derived growth factor receptor beta (P09619 whole entry): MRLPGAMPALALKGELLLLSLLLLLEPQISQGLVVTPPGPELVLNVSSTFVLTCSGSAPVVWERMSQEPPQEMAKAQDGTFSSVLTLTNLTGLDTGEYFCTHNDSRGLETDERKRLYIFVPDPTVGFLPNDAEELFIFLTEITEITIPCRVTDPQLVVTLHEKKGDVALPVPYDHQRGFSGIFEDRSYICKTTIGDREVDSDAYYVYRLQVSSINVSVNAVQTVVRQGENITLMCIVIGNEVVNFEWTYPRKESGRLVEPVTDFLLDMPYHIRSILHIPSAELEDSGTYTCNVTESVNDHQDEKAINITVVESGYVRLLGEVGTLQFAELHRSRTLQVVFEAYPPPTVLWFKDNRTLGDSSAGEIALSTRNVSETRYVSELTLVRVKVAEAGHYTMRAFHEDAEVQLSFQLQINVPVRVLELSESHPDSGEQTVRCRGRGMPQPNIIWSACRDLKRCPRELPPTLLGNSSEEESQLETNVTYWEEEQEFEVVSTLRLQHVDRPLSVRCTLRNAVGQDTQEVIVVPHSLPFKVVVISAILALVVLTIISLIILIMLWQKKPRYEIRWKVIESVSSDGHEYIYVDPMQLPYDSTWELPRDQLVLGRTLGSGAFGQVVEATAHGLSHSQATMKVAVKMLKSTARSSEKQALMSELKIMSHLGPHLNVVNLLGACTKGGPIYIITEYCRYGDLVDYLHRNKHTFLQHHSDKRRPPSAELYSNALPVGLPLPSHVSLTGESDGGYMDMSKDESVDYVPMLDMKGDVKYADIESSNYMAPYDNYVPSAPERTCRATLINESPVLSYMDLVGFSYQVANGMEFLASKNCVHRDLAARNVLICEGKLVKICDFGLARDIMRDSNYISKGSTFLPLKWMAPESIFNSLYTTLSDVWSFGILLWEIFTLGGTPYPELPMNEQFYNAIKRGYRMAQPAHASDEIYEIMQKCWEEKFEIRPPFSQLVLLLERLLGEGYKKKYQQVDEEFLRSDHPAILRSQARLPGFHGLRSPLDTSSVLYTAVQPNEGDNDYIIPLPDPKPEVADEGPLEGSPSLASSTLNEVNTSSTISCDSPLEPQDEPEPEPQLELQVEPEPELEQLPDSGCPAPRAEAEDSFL

[3] = target: Mitogen-activated protein kinase 3 (Homo sapiens, UniProt P27361); experiment: Selectivity interaction (KinomeScan (DiscoverX)) EUB0000595a MAPK3; conditions: at 10 µM
[4] = target: T1, Mitogen-activated protein kinase kinase kinase 12 (Homo sapiens) (UniProt Q12852); experiment: Selectivity interaction (KinomeScan (DiscoverX)) EUB0000595a MAP3K12; conditions: at 10 µM
T1 sequence (whole entry): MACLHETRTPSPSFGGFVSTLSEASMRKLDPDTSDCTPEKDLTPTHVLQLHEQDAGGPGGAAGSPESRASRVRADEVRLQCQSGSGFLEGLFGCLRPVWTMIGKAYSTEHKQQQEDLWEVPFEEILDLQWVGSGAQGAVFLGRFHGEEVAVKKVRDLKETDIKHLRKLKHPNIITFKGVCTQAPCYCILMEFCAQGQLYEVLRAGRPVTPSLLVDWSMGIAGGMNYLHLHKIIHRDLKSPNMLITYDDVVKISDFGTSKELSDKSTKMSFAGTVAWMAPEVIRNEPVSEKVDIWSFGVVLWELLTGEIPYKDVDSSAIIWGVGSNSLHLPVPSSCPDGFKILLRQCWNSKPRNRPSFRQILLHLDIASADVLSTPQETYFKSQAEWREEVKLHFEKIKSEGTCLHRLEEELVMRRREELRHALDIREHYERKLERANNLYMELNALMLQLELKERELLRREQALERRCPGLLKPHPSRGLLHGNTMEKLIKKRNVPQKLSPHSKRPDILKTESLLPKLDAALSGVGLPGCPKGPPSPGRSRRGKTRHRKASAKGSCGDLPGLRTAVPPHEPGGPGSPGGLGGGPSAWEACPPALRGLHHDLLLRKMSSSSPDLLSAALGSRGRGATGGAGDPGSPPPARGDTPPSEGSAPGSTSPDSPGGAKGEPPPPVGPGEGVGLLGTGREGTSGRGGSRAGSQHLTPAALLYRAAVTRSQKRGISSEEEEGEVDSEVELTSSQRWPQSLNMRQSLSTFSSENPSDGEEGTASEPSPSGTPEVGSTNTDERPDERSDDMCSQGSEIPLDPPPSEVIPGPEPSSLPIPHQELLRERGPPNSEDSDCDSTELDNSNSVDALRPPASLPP

Focal adhesion kinase 1 = Focal adhesion kinase 1 (Homo sapiens, UniProt Q05397); experiment: Selectivity interaction (ActivX KiNativ screen (kinase selectivity in THP-1 cell lysates)) EUB0000639a PTK2; format: subcellular; conditions: lysate, at 5 µM
[5] = target: Serine/threonine-protein kinase 32A (Homo sapiens) (UniProt Q8WU08); experiment: Selectivity interaction (KinomeScan (DiscoverX)) EUB0000229b STK32A; conditions: at 10 µM
[6] = target: STE20-like serine/threonine-protein kinase (Homo sapiens, UniProt Q9H2G2); experiment: Selectivity interaction (ProQinase) EUB0000171b SLK
Sequence of STE20-like serine/threonine-protein kinase (Q9H2G2 whole entry, looked up): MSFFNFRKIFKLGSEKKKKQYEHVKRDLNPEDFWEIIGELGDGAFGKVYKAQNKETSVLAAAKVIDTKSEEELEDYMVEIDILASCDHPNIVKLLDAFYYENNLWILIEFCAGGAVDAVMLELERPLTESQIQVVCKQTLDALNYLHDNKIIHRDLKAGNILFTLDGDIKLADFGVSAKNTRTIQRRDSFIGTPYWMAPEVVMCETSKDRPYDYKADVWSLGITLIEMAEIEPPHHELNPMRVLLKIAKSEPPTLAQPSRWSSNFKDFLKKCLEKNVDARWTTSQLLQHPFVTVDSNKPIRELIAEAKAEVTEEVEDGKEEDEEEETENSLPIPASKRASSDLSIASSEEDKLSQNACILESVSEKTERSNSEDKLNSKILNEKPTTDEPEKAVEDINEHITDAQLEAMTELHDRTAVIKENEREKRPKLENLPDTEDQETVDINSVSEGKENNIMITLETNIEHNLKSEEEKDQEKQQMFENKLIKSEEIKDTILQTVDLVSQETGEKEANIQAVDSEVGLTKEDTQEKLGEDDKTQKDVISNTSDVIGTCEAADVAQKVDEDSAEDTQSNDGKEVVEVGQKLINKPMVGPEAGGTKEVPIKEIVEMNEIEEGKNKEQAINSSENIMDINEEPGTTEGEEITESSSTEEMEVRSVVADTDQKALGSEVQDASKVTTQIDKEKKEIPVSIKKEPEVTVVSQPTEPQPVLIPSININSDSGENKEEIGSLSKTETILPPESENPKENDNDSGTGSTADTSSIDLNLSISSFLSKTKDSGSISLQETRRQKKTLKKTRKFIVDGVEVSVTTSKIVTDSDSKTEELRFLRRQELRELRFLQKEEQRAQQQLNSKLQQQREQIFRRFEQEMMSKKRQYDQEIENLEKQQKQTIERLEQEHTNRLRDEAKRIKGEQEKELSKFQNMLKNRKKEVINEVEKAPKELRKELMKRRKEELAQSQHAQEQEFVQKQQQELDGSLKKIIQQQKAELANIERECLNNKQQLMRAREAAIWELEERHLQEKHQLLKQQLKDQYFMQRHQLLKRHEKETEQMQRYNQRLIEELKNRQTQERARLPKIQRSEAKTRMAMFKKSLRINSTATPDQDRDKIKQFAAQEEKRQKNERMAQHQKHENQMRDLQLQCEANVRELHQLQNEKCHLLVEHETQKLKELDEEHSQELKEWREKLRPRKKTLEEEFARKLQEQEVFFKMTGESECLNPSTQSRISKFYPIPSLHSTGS

[7] = target: Dual specificity mitogen-activated protein kinase kinase 2 (Homo sapiens) (UniProt P36507); experiment: Selectivity interaction (KinomeScan (DiscoverX)) EUB0001049a MAP2K2; conditions: at 1 µM
Sequence of Dual specificity mitogen-activated protein kinase kinase 2 (Homo sapiens) (P36507 whole entry): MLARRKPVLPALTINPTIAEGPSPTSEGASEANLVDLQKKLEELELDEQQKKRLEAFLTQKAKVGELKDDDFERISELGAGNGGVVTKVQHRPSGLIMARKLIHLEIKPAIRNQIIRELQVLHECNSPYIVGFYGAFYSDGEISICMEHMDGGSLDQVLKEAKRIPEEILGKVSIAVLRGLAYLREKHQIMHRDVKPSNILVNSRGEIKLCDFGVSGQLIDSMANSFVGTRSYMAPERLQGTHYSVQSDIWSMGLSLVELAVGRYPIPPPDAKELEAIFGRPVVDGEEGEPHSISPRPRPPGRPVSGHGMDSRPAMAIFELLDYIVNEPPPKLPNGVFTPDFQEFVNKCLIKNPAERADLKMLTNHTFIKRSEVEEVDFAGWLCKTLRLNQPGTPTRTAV

[8] = target: Protein kinase C theta type (Homo sapiens, UniProt Q04759); experiment: Selectivity interaction (Kinase panel (33PanQinase(R) Activity Assay)) EUB0000877a PRKCQ
[9] = target: Ribosomal protein S6 kinase alpha-2 (Homo sapiens) (UniProt Q15349); experiment: Selectivity interaction (KinomeScan (DiscoverX)) EUB0000092b RPS6KA2; conditions: at 10 µM
[10] = target: T2, Serine/threonine-protein kinase DCLK1 (Homo sapiens) (UniProt O15075); experiment: Selectivity interaction (KinomeScan (DiscoverX)) EUB0000092b DCLK1; conditions: at 10 µM
T2 sequence (whole entry): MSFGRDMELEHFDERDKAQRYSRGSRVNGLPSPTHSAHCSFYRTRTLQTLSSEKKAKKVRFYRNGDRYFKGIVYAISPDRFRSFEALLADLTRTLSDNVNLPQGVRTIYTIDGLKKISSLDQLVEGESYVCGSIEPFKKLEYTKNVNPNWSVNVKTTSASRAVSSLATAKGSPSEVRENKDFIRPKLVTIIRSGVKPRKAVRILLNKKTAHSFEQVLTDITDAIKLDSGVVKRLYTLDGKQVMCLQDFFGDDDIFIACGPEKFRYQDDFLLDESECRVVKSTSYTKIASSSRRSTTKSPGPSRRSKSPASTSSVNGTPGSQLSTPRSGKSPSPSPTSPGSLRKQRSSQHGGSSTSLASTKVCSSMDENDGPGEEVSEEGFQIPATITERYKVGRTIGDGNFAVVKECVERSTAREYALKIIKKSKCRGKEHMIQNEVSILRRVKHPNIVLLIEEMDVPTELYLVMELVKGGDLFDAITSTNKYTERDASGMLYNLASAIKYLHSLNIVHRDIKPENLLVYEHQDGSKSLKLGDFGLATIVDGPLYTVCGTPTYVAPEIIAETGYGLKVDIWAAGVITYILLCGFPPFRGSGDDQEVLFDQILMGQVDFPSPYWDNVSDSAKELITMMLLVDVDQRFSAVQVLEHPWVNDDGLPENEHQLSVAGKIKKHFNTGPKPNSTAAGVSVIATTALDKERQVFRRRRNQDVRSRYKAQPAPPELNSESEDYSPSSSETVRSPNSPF

[11] = target: Serine/threonine-protein kinase WNK2 (Homo sapiens) (UniProt Q9Y3S1); experiment: Selectivity interaction (LanthaScreen Eu Kinase Binding Assay) EUB0001632a WNK2; conditions: at 10 µM
Sequence of Serine/threonine-protein kinase WNK2 (Homo sapiens) (Q9Y3S1 whole entry): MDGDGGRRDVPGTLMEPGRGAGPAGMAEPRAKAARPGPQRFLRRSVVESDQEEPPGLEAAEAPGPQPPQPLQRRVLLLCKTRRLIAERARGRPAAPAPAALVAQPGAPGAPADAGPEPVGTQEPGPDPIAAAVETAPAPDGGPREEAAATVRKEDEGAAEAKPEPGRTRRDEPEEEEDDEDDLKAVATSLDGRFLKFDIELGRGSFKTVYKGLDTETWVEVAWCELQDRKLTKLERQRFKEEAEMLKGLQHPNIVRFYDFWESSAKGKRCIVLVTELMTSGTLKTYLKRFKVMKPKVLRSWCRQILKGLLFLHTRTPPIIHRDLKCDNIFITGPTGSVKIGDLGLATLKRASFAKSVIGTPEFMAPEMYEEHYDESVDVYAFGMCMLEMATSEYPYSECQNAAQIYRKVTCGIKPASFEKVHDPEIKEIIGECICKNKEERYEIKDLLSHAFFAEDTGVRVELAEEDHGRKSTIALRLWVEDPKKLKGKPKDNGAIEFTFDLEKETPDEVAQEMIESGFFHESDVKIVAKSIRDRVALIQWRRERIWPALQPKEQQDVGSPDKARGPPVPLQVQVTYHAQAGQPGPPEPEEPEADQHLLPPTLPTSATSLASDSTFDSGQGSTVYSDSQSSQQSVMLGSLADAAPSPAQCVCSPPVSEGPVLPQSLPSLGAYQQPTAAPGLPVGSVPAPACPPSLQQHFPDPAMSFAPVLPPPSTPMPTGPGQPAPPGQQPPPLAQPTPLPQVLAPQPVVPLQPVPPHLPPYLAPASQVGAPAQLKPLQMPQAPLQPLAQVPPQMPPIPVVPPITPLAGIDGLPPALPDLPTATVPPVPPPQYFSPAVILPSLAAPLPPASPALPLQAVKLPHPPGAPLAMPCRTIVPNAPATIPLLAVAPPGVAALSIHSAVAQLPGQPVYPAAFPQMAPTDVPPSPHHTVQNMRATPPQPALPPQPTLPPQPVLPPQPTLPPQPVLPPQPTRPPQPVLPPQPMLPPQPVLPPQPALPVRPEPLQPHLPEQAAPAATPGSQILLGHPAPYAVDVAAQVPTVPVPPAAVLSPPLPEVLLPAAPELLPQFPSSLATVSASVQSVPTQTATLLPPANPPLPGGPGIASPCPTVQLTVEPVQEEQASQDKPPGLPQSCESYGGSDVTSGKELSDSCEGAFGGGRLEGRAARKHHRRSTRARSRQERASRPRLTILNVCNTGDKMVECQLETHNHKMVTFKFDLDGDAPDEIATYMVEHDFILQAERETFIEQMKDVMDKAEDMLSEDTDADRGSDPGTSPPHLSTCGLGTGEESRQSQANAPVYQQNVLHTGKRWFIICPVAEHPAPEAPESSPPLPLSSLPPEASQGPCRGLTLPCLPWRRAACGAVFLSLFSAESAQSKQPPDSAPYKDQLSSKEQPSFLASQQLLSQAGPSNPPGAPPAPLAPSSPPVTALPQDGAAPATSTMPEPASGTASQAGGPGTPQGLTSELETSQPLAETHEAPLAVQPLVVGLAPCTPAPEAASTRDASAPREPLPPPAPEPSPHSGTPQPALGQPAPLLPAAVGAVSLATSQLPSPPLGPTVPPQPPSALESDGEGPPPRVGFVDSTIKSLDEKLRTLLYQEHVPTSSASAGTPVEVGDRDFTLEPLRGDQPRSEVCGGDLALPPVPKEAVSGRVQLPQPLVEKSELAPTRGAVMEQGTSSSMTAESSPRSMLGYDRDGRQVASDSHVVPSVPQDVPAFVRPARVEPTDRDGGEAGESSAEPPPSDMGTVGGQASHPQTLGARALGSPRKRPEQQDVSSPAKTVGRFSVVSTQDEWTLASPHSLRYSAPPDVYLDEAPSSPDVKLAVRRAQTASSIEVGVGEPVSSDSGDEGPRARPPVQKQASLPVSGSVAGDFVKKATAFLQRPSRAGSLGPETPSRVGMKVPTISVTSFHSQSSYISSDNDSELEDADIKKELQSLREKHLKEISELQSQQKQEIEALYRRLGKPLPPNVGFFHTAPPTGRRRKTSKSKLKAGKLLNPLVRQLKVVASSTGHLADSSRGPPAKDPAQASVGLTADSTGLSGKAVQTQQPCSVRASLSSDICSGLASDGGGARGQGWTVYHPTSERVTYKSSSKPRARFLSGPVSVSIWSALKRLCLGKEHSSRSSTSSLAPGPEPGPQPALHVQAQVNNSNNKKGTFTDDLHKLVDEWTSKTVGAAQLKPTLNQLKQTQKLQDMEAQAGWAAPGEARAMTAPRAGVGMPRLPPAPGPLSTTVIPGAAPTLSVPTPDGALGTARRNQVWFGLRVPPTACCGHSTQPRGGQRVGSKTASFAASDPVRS

SMILES: Nc1cnc(N2CCc3cc(S(=O)(=O)Nc4c(F)cc(Cl)cc4F)cc(N4CCCC4=O)c32)nc1 [TP-020n]
% of inhibition [1]: -2.31%

SMILES: COCC(=O)NC/C=C/c1ccc2ncnc(Nc3ccc(Oc4ccc(C)nc4)c(C)c3)c2c1 [CP-724714]
IC50 [2]: > 10 µM
% of control [3]: 95%
% of control [4]: 92%

% of inhibition (Focal adhesion kinase 1): -9.4%
SMILES: CC[C@@H]1[C@H](F)C(=O)N[C@@H]1COc1nccc2cc(C(N)=O)c(OC)cc12 [ZIMLOVISERTIB]

SMILES: COc1cc(N(C)c2ccnc3ccc(C(F)(F)F)cc23)cc(OC)c1OC
% binding [5]: 82%

% of control ([6]; at 1 µM): 102%
% of control ([6]; at 5 µM): 76%
SMILES: C=CC(=O)Nc1cccc(C(=O)Nc2ccc(Nc3cc(-c4[nH]c(SC)nc4C)ccn3)cc2)c1

SMILES: COc1cc(Nc2nc(C)cc(-c3cnn4nc(OC)ccc34)n2)cc(C(F)(F)F)c1
% of control [7]: 77%

IC50 [8]: > 10 µM
SMILES: CCC(=O)N1CC[C@H](Nc2ncnc3c2CN(c2cnc(OC)c(C(F)(F)F)c2)CC3)C1 [LENIOLISIB]

SMILES: CCC(=O)N1CCN(c2ccc(-n3c(=O)ccc4cnc5ccc(-c6cnc7ccccc7c6)cc5c43)cc2C(F)(F)F)CC1
% of control [9]: 85%
% of control [10]: 100%

% of inhibition [11]: -13.6%
SMILES: Cn1cc(-n2cnc3c(NCc4nc5cc(Cl)c(Cl)cc5[nH]4)nc(N4CCOCC4)nc32)cn1
